Experimental data as given in article PMC9636582 (The Journal of Biological Chemistry, 2022).

Tests used:
GAL4-PPARδ LBD = molecular target: T1, GAL4-PPARδ LBD (Homo sapiens, UniProt Q03181); assay: GAL4-PPARδ LBD luciferase reporter assay in HEK293 cells; type: cell-based; conditions: for PPARδ activation (in words): 100 μM fatty acids, Fig. 1B
T1 construct: chimeric receptors containing the LBD of various NRs; expressed in transfected cells; host or cells: HEK293
T1 sequence (Q03181 211-439 limits assumed): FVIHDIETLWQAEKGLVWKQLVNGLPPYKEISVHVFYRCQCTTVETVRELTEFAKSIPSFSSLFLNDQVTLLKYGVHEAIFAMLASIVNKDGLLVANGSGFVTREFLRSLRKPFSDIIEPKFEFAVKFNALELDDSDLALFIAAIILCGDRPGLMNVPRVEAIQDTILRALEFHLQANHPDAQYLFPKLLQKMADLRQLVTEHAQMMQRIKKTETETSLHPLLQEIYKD

GAL4-PPARα LBD = molecular target: T2, GAL4-PPARα LBD (Homo sapiens, UniProt Q07869); assay: GAL4-PPARα LBD luciferase reporter assay in HEK293 cells; type: cell-based; conditions: for ligand-induced activation of PPARα (in words): 100 μM fatty acids, Fig. 1B
T2 construct: chimeric receptors containing the LBD of various NRs; expressed in transfected cells; host or cells: HEK293
T2 sequence (Q07869 239-466 limits assumed): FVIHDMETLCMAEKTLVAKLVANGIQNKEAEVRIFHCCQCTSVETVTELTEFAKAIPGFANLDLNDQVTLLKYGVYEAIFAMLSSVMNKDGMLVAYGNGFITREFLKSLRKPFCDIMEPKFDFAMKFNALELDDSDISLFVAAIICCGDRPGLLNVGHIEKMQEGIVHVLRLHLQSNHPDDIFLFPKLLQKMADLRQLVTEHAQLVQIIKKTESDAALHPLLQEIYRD

[1] = system: human intestinal organoids; assay: PPARδ target gene mRNA expression in human intestinal organoids (RT-qPCR); type: cell-based; conditions: 1 μM GW1516 or 30 μM fatty acids for 24 h
full-length PPARδ = molecular target: T3, full-length PPARδ (Homo sapiens, UniProt Q03181); assay: full-length PPARδ PPRE luciferase reporter assay in HEK293 cells; type: cell-based; conditions: Fig. 1C
T3 construct: expressed in transfected cells; host or cells: HEK293
T3 sequence (Q03181 1-441): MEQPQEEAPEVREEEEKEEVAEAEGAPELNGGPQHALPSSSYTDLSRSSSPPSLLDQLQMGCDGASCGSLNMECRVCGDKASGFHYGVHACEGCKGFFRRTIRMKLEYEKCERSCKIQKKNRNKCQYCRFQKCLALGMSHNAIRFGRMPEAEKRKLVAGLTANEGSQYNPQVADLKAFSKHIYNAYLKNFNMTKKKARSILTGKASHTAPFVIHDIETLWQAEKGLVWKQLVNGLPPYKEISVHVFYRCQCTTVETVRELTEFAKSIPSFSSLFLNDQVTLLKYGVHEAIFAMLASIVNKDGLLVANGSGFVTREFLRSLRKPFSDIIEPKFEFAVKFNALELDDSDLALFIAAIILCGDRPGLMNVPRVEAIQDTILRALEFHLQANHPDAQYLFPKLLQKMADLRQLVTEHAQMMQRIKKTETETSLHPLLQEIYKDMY
From the text: Luciferase activities were normalized to β-galactosidase activities.

VP16-PPARδ / GAL4-SRC-1 = molecular target: T4, VP16-PPARδ / GAL4-SRC-1 (Homo sapiens, UniProt Q03181); assay: mammalian two-hybrid assay, VP16-PPARδ and coactivator GAL4-SRC-1; type: cell-based; conditions: 30 μM fatty acids, 100 nM GW1516, HEK293 cells, Fig. 3A
T4 construct: expressed in transfected cells; host or cells: HEK293
T4 sequence (Q03181 1-441): T3 sequence (Q03181 1-441)
T4 sequence (Q15788 595-771 partner limits assumed): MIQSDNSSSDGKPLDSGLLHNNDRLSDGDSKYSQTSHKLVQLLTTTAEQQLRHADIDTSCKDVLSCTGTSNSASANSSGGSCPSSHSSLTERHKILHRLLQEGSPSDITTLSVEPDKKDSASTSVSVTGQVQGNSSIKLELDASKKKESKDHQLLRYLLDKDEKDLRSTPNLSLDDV

VP16-PPARα / GAL4-SRC-1 = molecular target: T5, VP16-PPARα / GAL4-SRC-1 (Homo sapiens, UniProt Q07869); assay: mammalian two-hybrid assay, VP16-PPARα and coactivator GAL4-SRC-1; type: cell-based; conditions: 30 μM fatty acids, 1 μM GW7647, HEK293 cells, Fig. 3B
T5 construct: expressed in transfected cells; host or cells: HEK293
T5 sequence (Q07869 1-468): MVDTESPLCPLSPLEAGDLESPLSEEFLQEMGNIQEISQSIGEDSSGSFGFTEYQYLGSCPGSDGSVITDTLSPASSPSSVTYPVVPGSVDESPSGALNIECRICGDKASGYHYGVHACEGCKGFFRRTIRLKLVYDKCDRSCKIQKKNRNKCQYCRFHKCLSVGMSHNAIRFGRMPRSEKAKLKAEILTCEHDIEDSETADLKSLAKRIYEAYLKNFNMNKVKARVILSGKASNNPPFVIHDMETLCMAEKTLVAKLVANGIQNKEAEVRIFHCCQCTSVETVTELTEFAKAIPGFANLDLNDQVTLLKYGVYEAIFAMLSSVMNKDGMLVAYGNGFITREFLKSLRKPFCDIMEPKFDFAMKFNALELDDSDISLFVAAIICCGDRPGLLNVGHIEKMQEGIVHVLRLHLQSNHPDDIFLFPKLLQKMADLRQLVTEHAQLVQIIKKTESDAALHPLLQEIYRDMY
T5 sequence (Q15788 595-771 partner limits assumed): T4 sequence (Q15788 595-771 partner limits assumed)

VP16-PPARδ / GAL4-NCoR = molecular target: T6, VP16-PPARδ / GAL4-NCoR (Homo sapiens, UniProt Q03181); assay: mammalian two-hybrid assay, VP16-PPARδ and corepressor NCoR; type: cell-based; conditions: 30 μM fatty acids, HEK293 cells, Fig. 3C
T6 construct: expressed in transfected cells; host or cells: HEK293
T6 sequence (Q03181 1-441): T3 sequence (Q03181 1-441)

VP16-PPARα / GAL4-NCoR = molecular target: T7, VP16-PPARα / GAL4-NCoR (Homo sapiens, UniProt Q07869); assay: mammalian two-hybrid assay, VP16-PPARα and corepressor NCoR; type: cell-based; conditions: 30 μM fatty acids, HEK293 cells, Fig. 3D
T7 construct: expressed in transfected cells; host or cells: HEK293
T7 sequence (Q07869 1-468): T5 sequence (Q07869 1-468)

[2] = molecular target: T8, recombinant human PPARδ LBD protein (Homo sapiens, UniProt Q03181); assay: [14C] DHA competitive ligand-binding assay; conditions: 100 nM [14C] DHA, 1 μM nonlabeled fatty acids, overnight at 4 °C
T8 construct: Human PPARδ LBD (140–442) construct was cloned into a pGEX-4T1 vector; GST (N, cleaved yes); made in house; host or cells: Escherichia coli BL21 (DE3) pLys
T8 sequence (Q03181 140-441 limits assumed): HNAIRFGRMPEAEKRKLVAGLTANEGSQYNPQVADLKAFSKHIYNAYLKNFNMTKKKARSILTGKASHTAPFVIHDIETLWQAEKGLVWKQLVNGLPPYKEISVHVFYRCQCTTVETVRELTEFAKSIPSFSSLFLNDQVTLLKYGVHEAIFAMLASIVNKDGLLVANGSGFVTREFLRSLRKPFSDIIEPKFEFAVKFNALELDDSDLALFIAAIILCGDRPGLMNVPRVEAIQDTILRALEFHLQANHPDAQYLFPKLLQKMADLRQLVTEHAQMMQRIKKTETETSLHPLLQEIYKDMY
Procedure: To identify the mechanism underlying the activation of PPARδ by GLA-derived fatty acids, we performed a [^14C] DHA competitive ligand-binding assay describing the displacement of ligands from receptors with recombinant human PPARδ LBD protein produced by a bacterial expression system (Figs. 4, A and B and S2). PPARδ LBD or glutathione-S-transferase (GST) recombinant protein was incubated with both [^14C] […] A competitive inhibition of [^14C] DHA binding was analyzed as a direct binding to PPARδ LBD (see Experimental procedures). […] DHA binding to PPARδ LBD competitively (Fig. 4C).
Human PPARδ LBD (140–442) construct was cloned into a pGEX-4T1 vector (GE Healthcare Life Sciences) at the restriction enzyme site of SmaI and XhoI. The protein was expressed in Eschericia coli BL21 (DE3) pLys cells (Novagen) as a C-terminal fusion to a GST tag with a thrombin cleavage site. A single colony was cultured in 2 ml of LB media supplemented with 20 μg/ml of ampicillin and 30 μg/ml of chloramphenicol at 37 °C and 200 rpm for 18 h. The preculture was then transferred to 1 l of LB media until the A600 reached 0.6 to 0.8. IPTG was added to produce a final concentration of 0.4 mM, and expression was continued at 24 °C and 150 rpm for 18 h. Cells were collected using centrifugation, and pellets were resuspended in lysis buffer comprising 50 mM Tris–HCl (pH 7.5), 150 mM NaCl, 5 mM DTT, 1 mM EDTA, and 10% glycerol before sonication was performed. The supernatant was then collected using centrifugation at 100,000g and 4 °C for 70 min, after which it was loaded onto GST Accept (nacalai tesque) and equilibrated using the lysis buffer. Subsequently, the column was washed using five column volumes of the lysis buffer and thrombin cleavage buffer comprising 20 mM Tri–HCl (pH 8.4), 150 mM NaCl, 2.5 mM CaCl2, and 1 mM DTT, respectively. The GST tag was removed via digestion using biotinylated thrombin (Merck) for 18 h at 4 °C. The biotinylated thrombin was removed using Dynabeads M-280 streptavidin (Veritas). The purity of the target proteins was verified using SDS-PAGE.
A ligand-binding assay was performed as described previously with minor modifications ([72]). Briefly, purified recombinant human PPARδ LBD protein was incubated with 100 nM ([…]) [^14C] DHA in GP buffer (137 mM NaCl, 8.1 mM Na2HPO4, 2.68 mM KCl, 1.47 mM KH2PO4, 1% sodium azide, and 0.1% gelatin) overnight at 4 °C with or without various competitors (1 μM), including DHA and GLA-derived fatty acids. Unbound ligands were removed by adsorption to 3% dextran-coated charcoal, and the supernatant was collected. The PPARδ-bound [^14C] DHA was measured using a scintillation counter (PerkinElmer).

Structure (SMILES)	PPARδ activation (in words) (GAL4-PPARδ LBD)	ligand-induced activation of PPARα (in words) (GAL4-PPARα LBD)	also measured
CC/C=C\C/C=C\C/C=C\C/C=C\C/C=C\C/C=C\CCC(=O)O [DHA, docosahexaenoic acid, reference compound]	–	–	EC50 (GAL4-PPARδ LBD; GAL4-PPARδ LBD, calculated from luciferase activity with Quest Graph EC50 Calculator): 44.6 µM; EC50 (GAL4-PPARα LBD; GAL4-PPARα LBD, calculated from luciferase activity with Quest Graph EC50 Calculator): 9.32 µM
Cc1cc(SCc2sc(-c3ccc(C(F)(F)F)cc3)nc2C)ccc1OCC(=O)O [GW1516, reference compound]	–	–	expression of PPARδ target genes (CPT1A, HMGCS2, PDK4, ACSL1) [1]: upregulated the mRNA expression of target genes
CCCCCC(O)CC/C=C\CCCCCCCC(=O)O (centres unmarked) [HYD]	effective	little or no effect	–
CCCCCC(O)CCC(O)CCCCCCCCC(=O)O (centres unmarked) [HYE]	effective	little or no effect	–
CCCCCC(=O)CC/C=C\CCCCCCCC(=O)O [KetoD]	effective	little or no effect	–
CC/C=C\CC(O)CC/C=C\CCCCCCCC(=O)O (centres unmarked) [αHYD]	effective	little or no effect	–
CC/C=C\CC(O)CCC(O)CCCCCCCCC(=O)O (centres unmarked) [αHYE]	–	little or no effect	–
CC/C=C\CC(=O)CC/C=C\CCCCCCCC(=O)O [αKetoD]	–	little or no effect	–
CCCCCC(O)CCC(O)CC/C=C\CCCCC(=O)O (stereo not drawn) [γHYE, 10,13-dihydroxy-cis-6-octadecenoic acid]	more robust PPARδ activation than their original compound, GLA	–	transactivation of full-length PPARδ (in words) (full-length PPARδ): activated PPARδ potently; recruitment of coactivator SRC-1 to PPARδ (VP16-PPARδ / GAL4-SRC-1): induced coactivator-recruitment; recruitment of coactivator SRC-1 to PPARα (VP16-PPARα / GAL4-SRC-1): induced coactivator-recruitment; interaction between PPARδ and corepressor NCoR (VP16-PPARδ / GAL4-NCoR): reduced the interaction; interaction between PPARα and corepressor NCoR (VP16-PPARα / GAL4-NCoR): reduced the interaction; competitive displacement of [14C] DHA binding to PPARδ LBD [2]: displaced [^14C] DHA binding to PPARδ LBD competitively
